For this assay, the system named is HBV. Briefly: HBV replication inhibition assay (BDNA assay) in HepG2.2.15 cells. It counts as cell-based. To be noted: HepG2.2.15 cells, read-out: DNA EC50. The method, boiled down: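 Supernatant encapsidated HBV DNA was measured by bDNA after DNase digestion and proteinase K release. Stably HBV-integrated HepG2.2.15 cells had two 3-day compound exposures (0.5% DMSO). Signals were background-subtracted and normalized to DMSO wells, and EC50 was obtained by four-parameter fit.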

The mark [1] stands for this setting: Hepatitis B virus, HepG2.2.15, HBV replication assay (BDNA assay).
[2] abbreviates: HBV replication assay (BDNA assay).

One may read the EC50 as the concentration that produces a half-maximal response.

Each structure is given as a SMILES string. Like-named read-outs stand apart in the source and are kept apart here.

For `CN1OC(CO)Cn2nc3c(c2C1=O)CN(C(=O)Nc1cc(Cl)c(F)c(C(F)(F)F)c1)CC3` (centres unmarked) [Compound 022, N-(3-chloro-4-fluoro-5-(trifluoromethyl)phenyl)-4-(hydroxymethyl)-2-methyl-1-oxo-1,4,5,8,9,11-hexahydropyrido[4′,3′:3,4]pyrazolo[5,1-d][1,2,5]oxadiazepine-10(2H)-carboxamide], the EC50 under setting [1] fell in the range of 1 to 100 nM.

On to `CNC(=O)C1Cn2nc3c(c2C(=O)N(C)O1)CN(C(=O)Nc1cc(Cl)c(F)cc1F)[C@H](C)C3` (stereo in doubt) [Compound 111_D2, (4R*,9R)—N10-(5-chloro-2,4-difluorophenyl)-N4,2,9-trimethyl-1-oxo-1,4,5,8,9,11-hexahydropyrido[4′,3′:3,4]pyrazolo[5,1-d][1,2,5]oxadiazepine-4,10(2H)-dicarboxamide], for which the EC50 under setting [2] lay in the range of 1 to 100 nM.

As for `Cc1cc(NC(=O)N2Cc3c(nn4c3C(=O)N(C)OC(CF)C4)C[C@H]2C)ccc1F` (stereo in doubt) [Compound 086_E1, (4S*,9R)—N-(4-fluoro-3-methylphenyl)-4-(fluoromethyl)-2,9-dimethyl-1-oxo-1,4,5,8,9,11-hexahydropyrido[4′,3′:3,4]pyrazolo[5,1-d][1,2,5]oxadiazepine-10(2H)-carboxamide], the EC50 under setting [1] is 1 to 100 nM.

Regarding `CN(CC(F)F)C(=O)C1Cn2nc3c(c2C(=O)N(C)O1)CN(C(=O)Nc1cc(Cl)c(F)cc1F)CC3` (centres unmarked) [Compound 159, N10-(5-chloro-2,4-difluorophenyl)-N4-(2,2-difluoroethyl)-N4,2-dimethyl-1-oxo-1,4,5,8,9,11-hexahydropyrido[4′,3′:3,4]pyrazolo[5,1-d][1,2,5]oxadiazepine-4,10(2H)-dicarboxamide], the EC50 under setting [1] is 1 to 100 nM.

As for `C[C@@H]1Cc2nn3c(c2CN1C(=O)Nc1ccc(F)c(C#N)c1)C(=O)N(C)OC(CNS(C)(=O)=O)C3` (single isomer, unassigned) [Compound 178_D2, (4R*,9R)—N-(3-cyano-4-fluorophenyl)-2,9-dimethyl-4-(methylsulfonamidomethyl)-1-oxo-1,4,5,8,9,11-hexahydropyrido[4′,3′:3,4]pyrazolo[5,1-d][1,2,5]oxadiazepine-10(2H)-carboxamide], under setting [2], the EC50 lay in the range of 1 to 100 nM.

On to `CN1OC(C(=O)NCC(F)F)Cn2nc3c(c2C1=O)CN(C(=O)Nc1ccc(F)c(Cl)c1)CC3` (centres unmarked) [Compound 136, N10-(3-chloro-4-fluorophenyl)-N4-(2,2-difluoroethyl)-2-methyl-1-oxo-1,4,5,8,9,11-hexahydropyrido[4′,3′:3,4]pyrazolo[5,1-d][1,2,5]oxadiazepine-4,10(2H)-dicarboxamide], for which the EC50 under setting [1] is 1 to 100 nM.

As for `CN1OC(CO)Cn2nc3c(c2C1=O)CN(C(=O)Nc1ccnc(Br)c1F)CC3` (single isomer, unassigned) [Compound 033_E1, (S*)—N-(2-bromo-3-fluoropyridin-4-yl)-4-(hydroxymethyl)-2-methyl-1-oxo-1,4,5,8,9,11-hexahydropyrido[4′,3′:3,4]pyrazolo[5,1-d][1,2,5]oxadiazepine-10(2H)-carboxamide], under setting [1], the EC50 lay within 1 to 100 nM.

For `C[C@@H]1Cc2nn3c(c2CN1C(=O)Nc1ccc(F)c(C#N)c1F)C(=O)N(C)OC(C(=O)N(C)CC(F)F)C3` (stereo in doubt) [Compound 153_D1, (4S*,9R)—N10-(3-cyano-2,4-difluorophenyl)-N4-(2,2-difluoroethyl)-N4,2,9-trimethyl-1-oxo-1,4,5,8,9,11-hexahydropyrido[4′,3′:3,4]pyrazolo[5,1-d][1,2,5]oxadiazepine-4,10(2H)-dicarboxamide], the EC50 under setting [2] was 100 to 500 nM.

For the compound `CN1OC(CNS(=O)(=O)C(F)(F)F)Cn2nc3c(c2C1=O)CN(C(=O)Nc1ccc(F)c(Cl)c1)CC3` (centres unmarked) [Compound 164, N-(3-chloro-4-fluorophenyl)-2-methyl-1-oxo-4-(((trifluoromethyl)sulfonamido)methyl)-1,4,5,8,9,11-hexahydropyrido[4′,3′:3,4]pyrazolo[5,1-d][1,2,5]oxadiazepine-10(2H)-carboxamide], the EC50 under setting [1] lay in the range of 100 to 500 nM.

`C[C@@H]1Cc2nn3c(c2CN1C(=O)Nc1ccc(F)c(C(F)(F)F)c1)C(=O)N(C)OC(CN(C)C)C3` (stereo in doubt) [Compound 098_D1, (4S*,9R)-4-((dimethylamino)methyl)-N-(4-fluoro-3-(trifluoromethyl)phenyl)-2,9-dimethyl-1-oxo-1,4,5,8,9,11-hexahydropyrido[4′,3′:3,4]pyrazolo[5,1-d][1,2,5]oxadiazepine-10(2H)-carboxamide]: the EC50 under setting [1] was 1 to 100 nM.

As for `CC(=O)NCC1Cn2nc3c(c2C(=O)N(C)O1)CN(C(=O)Nc1ccc(F)c(C(F)(F)F)c1)CC3` (single isomer, unassigned) [Compound 175_E1, (S*)-4-(acetamidomethyl)-N-(4-fluoro-3-(trifluoromethyl)phenyl)-2-methyl-1-oxo-1,4,5,8,9,11-hexahydropyrido[4′,3′:3,4]pyrazolo[5,1-d][1,2,5]oxadiazepine-10(2H)-carboxamide], the EC50 under setting [1] fell in the range of 1 to 100 nM.

On to `C[C@@H]1Cc2nn3c(c2CN1C(=O)Nc1cc(Cl)c(F)cc1F)C(=O)N(C)OC(COCC(F)F)C3` (stereo in doubt) [Compound 127_D2, (4R*,9R)—N-(5-chloro-2,4-difluorophenyl)-4-((2,2-difluoroethoxy)methyl)-2,9-dimethyl-1-oxo-1,4,5,8,9,11-hexahydropyrido[4′,3′:3,4]pyrazolo[5,1-d][1,2,5]oxadiazepine-10(2H)-carboxamide], for which the EC50 under setting [1] fell in the range of 1 to 100 nM.

On to `CN1OC(CO)Cn2nc3c(c2C1=O)CN(C(=O)Nc1ccc(F)c(Cl)c1Cl)CC3` (centres unmarked) [Compound 023, N-(2,3-dichloro-4-fluorophenyl)-4-(hydroxymethyl)-2-methyl-1-oxo-1,4,5,8,9,11-hexahydropyrido[4′,3′:3,4]pyrazolo[5,1-d][1,2,5]oxadiazepine-10(2H)-carboxamide], for which, under setting [1], the EC50 fell in the range of 1 to 100 nM.

Consider `C[C@@H]1Cc2nn3c(c2CN1C(=O)Nc1ccc(F)c(C(F)(F)F)c1)C(=O)N(C)OC(CF)C3` (stereo in doubt) [Compound 085_E2, (4R*,9R)—N-(4-fluoro-3-(trifluoromethyl)phenyl)-4-(fluoromethyl)-2,9-dimethyl-1-oxo-1,4,5,8,9,11-hexahydropyrido[4′,3′:3,4]pyrazolo[5,1-d][1,2,5]oxadiazepine-10(2H)-carboxamide], for which the EC50 under setting [2] lay within 1 to 100 nM.

On to `C[C@@H]1Cc2nn3c(c2CN1C(=O)Nc1ccc(F)c(Cl)c1)C(=O)N(C)OCC3` [Compound 075, (9R)—N-(3-chloro-4-fluoro-phenyl)-2,9-dimethyl-1-oxo-5,8,9,11-tetrahydro-4H-pyrido[2,3]pyrazolo[2,4-c][1,2,5]oxadiazepine-10-carboxamide], for which the concentration for a half-maximal effect (EC50) under setting [1] fell in the range of 1 to 100 nM.

For `C[C@@H]1Cc2nn3c(c2CN1C(=O)Nc1ccc(F)c(C(F)(F)F)c1)C(=O)N(C)OC(COCC(F)F)C3` (stereo in doubt) [Compound 126_D2, (4R*,9R)-4-((2,2-difluoroethoxy)methyl)-N-(4-fluoro-3-(trifluoromethyl)phenyl)-2,9-dimethyl-1-oxo-1,4,5,8,9,11-hexahydropyrido[4′,3′:3,4]pyrazolo[5,1-d][1,2,5]oxadiazepine-10(2H)-carboxamide], the EC50 under setting [2] is 1 to 100 nM.

Regarding `CN1OC(CS(C)(=O)=O)Cn2nc3c(c2C1=O)CN(C(=O)Nc1ccc(F)c(Cl)c1)CC3` (centres unmarked) [Compound 050, N-(3-chloro-4-fluorophenyl)-2-methyl-4-((methylsulfonyl)methyl)-1-oxo-1,4,5,8,9,11-hexahydropyrido[4′,3′:3,4]pyrazolo[5,1-d][1,2,5]oxadiazepine-10(2H)-carboxamide], the EC50 under setting [1] fell in the range of 1 to 100 nM.

For `C[C@@H]1Cc2nn3c(c2CN1C(=O)Nc1ccc(F)c(C#N)c1)C(=O)N(C)N(C)CC3` [Compound 224, (R)-N-(3-cyano-4-fluorophenyl)-2,3,9-trimethyl-1-oxo-1,2,3,4,5,8,9,11-octahydro-10H-pyrido[4′,3′:3,4]pyrazolo[5,1-d][1,2,5]triazepine-10-carboxamide], the EC50 under setting [1] fell in the range of 1 to 100 nM.

Turning to `C[C@@H]1Cc2nn3c(c2CN1C(=O)Nc1ccc(F)c(C(F)(F)F)c1)C(=O)N(C)N=C(COCC(F)F)C3` [Compound 238, (R)-4-((2,2-difluoroethoxy)methyl)-N-(4-fluoro-3-(trifluoromethyl)phenyl)-2,9-dimethyl-1-oxo-1,2,5,8,9,11-hexahydro-10H-pyrido[4′,3′:3,4]pyrazolo[5,1-d][1,2,5]triazepine-10-carboxamide], the EC50 under setting [1] is 100 to 500 nM.

Consider `CN1OC(CO)Cn2nc3c(c2C1=O)CN(C(=O)Nc1ccc(F)c(Br)c1F)CC3` (centres unmarked) [Compound 010, N-(3-bromo-2,4-difluorophenyl)-4-(hydroxymethyl)-2-methyl-1-oxo-1,4,5,8,9,11-hexahydropyrido[4′,3′:3,4]pyrazolo[5,1-d][1,2,5]oxadiazepine-10(2H)-carboxamide], for which the EC50 under setting [1] lay within 1 to 100 nM.

On to `CCOC(=O)NCC1Cn2nc3c(c2C(=O)N(C)O1)CN(C(=O)Nc1ccc(F)c(Cl)c1)CC3` (centres unmarked) [Compound 202, ethyl ((10-((3-chloro-4-fluorophenyl)carbamoyl)-2-methyl-1-oxo-1,2,4,5,8,9,10,11-octahydropyrido[4′,3′:3,4]pyrazolo[5,1-d][1,2,5]oxadiazepin-4-yl)methyl)carbamate], for which the EC50 under setting [1] was 1 to 100 nM.

As to `C[C@@H]1Cc2nn3c(c2CN1C(=O)Nc1ccc(F)c(Br)c1)C(=O)N(C)OC(CNCC(F)F)C3` (stereo in doubt) [Compound 184_D2, (4R*,9R)—N-(3-bromo-4-fluorophenyl)-4-(((2,2-difluoroethyl)amino)methyl)-2,9-dimethyl-1-oxo-1,4,5,8,9,11-hexahydropyrido[4′,3′:3,4]pyrazolo[5,1-d][1,2,5]oxadiazepine-10(2H)-carboxamide], the EC50 under setting [2] fell in the range of 1 to 100 nM.

On to `CNC(=O)C1Cn2nc3c(c2C(=O)N(C)O1)CN(C(=O)Nc1ccc(F)c(Cl)c1F)[C@H](C)C3` (single isomer, unassigned) [Compound 110_D1, (4S*,9R)—N10-(3-chloro-2,4-difluorophenyl)-N4,2,9-trimethyl-1-oxo-1,4,5,8,9,11-hexahydropyrido[4′,3′:3,4]pyrazolo[5,1-d][1,2,5]oxadiazepine-4,10(2H)-dicarboxamide], for which, under setting [2], the EC50 is 500 to 1000 nM.
